US20260232767A1, “INTERLEUKIN-23 RECEPTOR ANTAGONIST PEPTIDES FOR USE IN THE TREATMENT OF PSORIASIS” (Janssen Pharmaceutica NV, priority 2023, published 2026)

Test system: subjects with moderate-to-severe plaque psoriasis
Assay: IGA score, Example 1
Assay type: in vivo, human
Settings: Week 16
Procedure: The Investigator's Global Assessment (IGA) documents the investigator's assessment of the participant's psoriasis at a given time point. Overall lesions are graded for induration, erythema, and scaling. The participant's psoriasis is assessed as cleared (0), minimal (1), mild (2), moderate (3), or severe (4).
This was a randomized, double-blind, placebo-controlled, dose-ranging, parallel group, multicenter, interventional study in subjects with moderate-to-severe plaque psoriasis. A target of 240 subjects were enrolled in this study with 40 subjects planned per intervention group.
Clinician-reported outcomes including Psoriasis Area and Severity Index (PASI), Body Surface Area (BSA), Investigator's Global Assessment (IGA), Nail Psoriasis Area and Severity Index (NAPSI), Fingernail Physician's Global Assessment (f-PGA), Static Physician's Global Assessment of Genitalia (s-PGA-G), Physician's Global Assessment of Hands and/or Feet (hf-PGA), and Scalp Specific Investigator Global Assessment (ss-IGA) were obtained at Week 0, 8, and 16. PASI and IGA were also obtained at Weeks 1, 2, 4, and 12, and at Week 20, four weeks after the administration of the tablets has stopped.

[1] = 25 mg BID, peak plasma conc. <Q1, N=2
[2] = 25 mg BID, peak plasma conc. Q1 to <Q2, N=2
[3] = 25 mg BID, peak plasma conc. Q2 to <Q3, N=2
[4] = 25 mg BID, peak plasma conc. ≥Q3, N=2
[5] = 25 mg BID, trough plasma conc <Q1
[6] = 25 mg BID, trough plasma conc Q1 to <Q2
[7] = 25 mg BID, trough plasma conc Q2 to <Q3
[8] = 25 mg BID, trough plasma conc ≥Q3
[9] = 25 mg QD, peak plasma conc. <Q1, N=2
[10] = 25 mg QD, peak plasma conc. Q1 to <Q2, N=2
[11] = 25 mg QD, peak plasma conc. Q2 to <Q3, N=2
[12] = 25 mg QD, peak plasma conc. ≥Q3, N=2
[13] = 25 mg QD, trough plasma conc <Q1
[14] = 25 mg QD, trough plasma conc Q1 to <Q2
[15] = 25 mg QD, trough plasma conc Q2 to <Q3
[16] = 25 mg QD, trough plasma conc ≥Q3
[17] = 50 mg QD, peak plasma conc. <Q1, N=2
[18] = 50 mg QD, peak plasma conc. Q1 to <Q2, N=2
[19] = 50 mg QD, peak plasma conc. Q2 to <Q3, N=2
[20] = 50 mg QD, peak plasma conc. ≥Q3, N=2
[21] = 50 mg QD, trough plasma conc <Q1
[22] = 50 mg QD, trough plasma conc Q1 to <Q2
[23] = 50 mg QD, trough plasma conc Q2 to <Q3
[24] = 50 mg QD, trough plasma conc ≥Q3
[25] = 100 mg BID, peak plasma conc. <Q1, N=2
[26] = 100 mg BID, peak plasma conc. Q1 to <Q2, N=3
[27] = 100 mg BID, peak plasma conc. Q2 to <Q3, N=2
[28] = 100 mg BID, peak plasma conc. ≥Q3, N=3
[29] = 100 mg BID, trough plasma conc <Q1

## CC(=O)NCCCC[C@@H]1NC(=O)[C@H](Cc2c[nH]c3c(C)cccc23)NC(=O)[C@H]([C@@H](C)O)NC(=O)[C@H](CC(N)=O)NC(=O)[C@@H](NC(C)=O)C(C)(C)SSC(C)(C)[C@@H](C(=O)N[C@@H](Cc2ccc(OCCN)cc2)C(=O)N[C@@H](Cc2ccc3ccccc3c2)C(=O)NC2(C(=O)N[C@@H](CCC(=O)O)C(=O)N[C@@H](CC(N)=O)C(=O)N[C@@H](Cc3cccnc3)C(=O)N(C)CC(N)=O)CCOCC2)NC1=O [IL-23 receptor antagonist peptide, Ac-[Pen]*-N-T-[W(7-Me)]-[Lys(Ac)]-[Pen]*-Phe[4-(2-aminoethoxy)]-[2-Nal]-[THP]-E-N-[3-Pal]-Sarc-NH2 (*[Pen]-[Pen]* formdisulfidebond)]
25 mg BID
  IGA 0 or 1 treatment difference vs placebo: 39.5% (21.7%,
  IGA 0 treatment difference vs placebo: 14.6% (4.0%,
  Subjects achieving IGA Score = 0: (14.6%)
  Subjects achieving IGA Score = 0 or 1: (51.2%)
25 mg BID, N=41
  IGA score 0, %: (14.6) %
  IGA score 0/1, %: (51.2) %
[1]
  IGA Score = 0, n subjects: 0
  IGA Score = 0 or 1, n subjects: 0
[2]
  IGA Score = 0, n subjects: 0
  IGA Score = 0 or 1, % subjects: (50.0%)
  IGA Score = 0 or 1, n subjects: 1
[3]
  IGA Score = 0, n subjects: 0
  IGA Score = 0 or 1, % subjects: (50.0%)
  IGA Score = 0 or 1, n subjects: 1
[4]
  IGA Score = 0, % subjects: (50.0%)
  IGA Score = 0, n subjects: 1
  IGA Score = 0 or 1, % subjects: (50.0%)
  IGA Score = 0 or 1, n subjects: 1
[5]
  IGA Score = 0, subjects: 2 (33.3%)
  IGA Score = 0 or 1, subjects: 4 (66.7%)
[6]
  IGA Score = 0, subjects: 1 (16.7%)
  IGA Score = 0 or 1, subjects: 1 (16.7%)
[7]
  IGA Score = 0, subjects: 0
  IGA Score = 0 or 1, subjects: 4 (66.7%)
[8]
  IGA Score = 0, subjects: 2 (33.3%)
  IGA Score = 0 or 1, subjects: 100.0%
25 mg QD
  IGA 0 or 1 treatment difference vs placebo: 27.9% (10.5%,
  IGA 0 treatment difference vs placebo: 16.3% (5.3%,
  Subjects achieving IGA Score = 0: (16.3%)
  Subjects achieving IGA Score = 0 or 1: (39.5%)
25 mg QD, N=43
  IGA score 0, %: (16.3) %
  IGA score 0/1, %: (39.5) %
[9]
  IGA Score = 0, n subjects: 0
  IGA Score = 0 or 1, % subjects: (50.0%)
  IGA Score = 0 or 1, n subjects: 1
[10]
  IGA Score = 0, n subjects: 0
  IGA Score = 0 or 1, % subjects: (50.0%)
  IGA Score = 0 or 1, n subjects: 1
[11]
  IGA Score = 0, % subjects: (50.0%)
  IGA Score = 0, n subjects: 1
  IGA Score = 0 or 1, % subjects: (50.0%)
  IGA Score = 0 or 1, n subjects: 1
[12]
  IGA Score = 0, n subjects: 0
  IGA Score = 0 or 1, % subjects: (50.0%)
  IGA Score = 0 or 1, n subjects: 1
[13]
  IGA Score = 0, subjects: 1 (20.0%)
  IGA Score = 0 or 1, subjects: 2 (40.0%)
[14]
  IGA Score = 0, subjects: 2 (33.3%)
  IGA Score = 0 or 1, subjects: 3 (50.0%)
[15]
  IGA Score = 0, subjects: 0
  IGA Score = 0 or 1, subjects: 1 (20.0%)
[16]
  IGA Score = 0, subjects: 1 (16.7%)
  IGA Score = 0 or 1, subjects: 4 (66.7%)
50 mg QD
  IGA 0 or 1 treatment difference vs placebo: 46.5% (29.1%,
  IGA 0 treatment difference vs placebo: 34.9% (20.8%,
  Subjects achieving IGA Score = 0: 15 (34.9%)
  Subjects achieving IGA Score = 0 or 1: 25 (58.1%)
50 mg QD, N=43
  IGA score 0, %: 34.9%
  IGA score 0/1, %: 58.1%
[17]
  IGA Score = 0, n subjects: 0
  IGA Score = 0 or 1, n subjects: 0
[18]
  IGA Score = 0, % subjects: (100.0%)
  IGA Score = 0, n subjects: 2
  IGA Score = 0 or 1, % subjects: (100.0%)
  IGA Score = 0 or 1, n subjects: 2
[19]
  IGA Score = 0, n subjects: 0
  IGA Score = 0 or 1, % subjects: (100.0%)
  IGA Score = 0 or 1, n subjects: 2
[20]
  IGA Score = 0, n subjects: 0
  IGA Score = 0 or 1, % subjects: (100.0%)
  IGA Score = 0 or 1, n subjects: 2
[21]
  IGA Score = 0, subjects: 1 (20.0%)
  IGA Score = 0 or 1, subjects: 2 (40.0%)
[22]
  IGA Score = 0, subjects: 3 (60.0%)
  IGA Score = 0 or 1, subjects: 4 (80.0%)
[23]
  IGA Score = 0, subjects: 2 (40.0%)
  IGA Score = 0 or 1, subjects: 2 (40.0%)
[24]
  IGA Score = 0, subjects: 2 (40.0%)
  IGA Score = 0 or 1, subjects: 3 (60.0%)
100 mg BID
  IGA 0 or 1 treatment difference vs placebo: 52.8% (36.0%,
  IGA 0 treatment difference vs placebo: 45.3% (30.6%,
  Subjects achieving IGA Score = 0: (45.2%)
  Subjects achieving IGA Score = 0 or 1: (64.3%)
100 mg BID, N=42
  IGA score 0, %: 45.2%
  IGA score 0/1, %: 64.3%
[25]
  IGA Score = 0, % subjects: (50.0%)
  IGA Score = 0, n subjects: 1
  IGA Score = 0 or 1, % subjects: (100.0%)
  IGA Score = 0 or 1, n subjects: 2
[26]
  IGA Score = 0, % subjects: (66.7%)
  IGA Score = 0, n subjects: 2
  IGA Score = 0 or 1, % subjects: (66.7%)
  IGA Score = 0 or 1, n subjects: 2
[27]
  IGA Score = 0, % subjects: (50.0%)
  IGA Score = 0, n subjects: 1
  IGA Score = 0 or 1, % subjects: (50.0%)
  IGA Score = 0 or 1, n subjects: 1
[28]
  IGA Score = 0, % subjects: (66.7%)
  IGA Score = 0, n subjects: 2
  IGA Score = 0 or 1, % subjects: (100.0%)
  IGA Score = 0 or 1, n subjects: 3
[29]
  IGA Score = 0, subjects: 1 (25.0%)
  IGA Score = 0 or 1, subjects: 3 (75.0%)
100 mg BID, trough plasma conc Q1 to <Q2
  IGA Score = 0, subjects: 2 (40.0%)
